The target in the test is T1, human GPR35 (Homo sapiens, UniProt Q9HC97).
T1 construct: expressed in transfected cells; host or cells: HEK293
Description: Luciferase Reporter Assay (YAP responsive element) in HEK293 cells stably transfected with human GPR35. The format is cell-based. To be noted: overnight incubation. The protocol:
HEK293 cells stably transfected with human GPR35 were maintained in Dulbecco's Modified Eagle Medium (DMEM) supplemented with 10% FBS and 300 μg/mL Zeocin and 200 μg/mL Hygromycin at 37° C., 10% CO2. On Day 1, cells were plated in poly-D-lysine coated 96-well tissue culture plate in regular growth medium (DMEM/10% FBS/300 μg/mL Zeocin/200 μg/mL Hygromycin. On the next day, luciferase reporter plasmid DNA with YAP responsive element was transfected into cells using lipofectamine 2000 (Invitrogen) following manufacture's protocol. After transfection for 6 hr., cells were treated with testing compounds in fasting DMEM medium (phenol red free, FBS free) at varying compound concentrations ranging from 10 μM to […] in a 3-fold serial diluted fashion. After an overnight incubation, the luciferase activities were measured with SteadyLite Plus Kit (PerkinElmer) according to manufacturer's protocol. IC50 was determined by fitting the dose-response data to a four-parameter logistic curve using GraphPad Prism.
The symbol “+” indicates IC50 is greater than […]. “++” indicates IC50>100 nM but ≤[…]. “+++” indicates IC50≤100 nM.
(In a reporter assay the amount or activity of a reporter protein is the signal.)

The structures appear in SMILES notation.

T1 sequence (Q9HC97 whole entry): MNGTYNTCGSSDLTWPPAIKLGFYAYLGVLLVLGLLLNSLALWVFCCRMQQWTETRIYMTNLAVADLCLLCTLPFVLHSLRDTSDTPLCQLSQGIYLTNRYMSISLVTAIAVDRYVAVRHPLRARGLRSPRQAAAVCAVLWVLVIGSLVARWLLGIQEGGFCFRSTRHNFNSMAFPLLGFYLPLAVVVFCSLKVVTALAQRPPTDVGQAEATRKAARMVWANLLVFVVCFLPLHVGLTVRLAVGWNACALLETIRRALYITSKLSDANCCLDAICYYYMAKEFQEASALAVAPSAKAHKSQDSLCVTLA

What is called IC50 is the concentration that gives 50% inhibition. A low value points to higher potency. Compound `O=C(Nc1ccc(Oc2ccc(F)cc2Cl)cc1)c1coc2cc(-c3nnn[nH]3)c(F)cc12` [Compound 1-40, N-(4-(2-chloro-4-fluorophenoxy)phenyl)-5-fluoro-6-(1H-tetrazol-5-yl)benzofuran-3-carboxamide] yielded an IC50 of 100 to 1000 nM.
With `O=C(Nc1ccc(OC2CCC2)c(F)c1)c1coc2cc(OCc3nnn[nH]3)ccc12` [Compound 1-4, 6-((1H-tetrazol-5-yl)methoxy)-N-(4-cyclobutoxy-3-fluorophenyl)benzofuran-3-carboxamide] the figure was above 1000 nM; with `C[C@H](Oc1ccc(NC(=O)c2coc3cc(-c4nnn[nH]4)c(F)cc23)cc1F)C(F)(F)F` (single isomer, unassigned) [Compound 1-30], at most 100 nM; with `O=C(Nc1ccc(OCc2ccc(F)cc2Cl)cc1)c1coc2cc(OCc3nnn[nH]3)ccc12` [Compound 1-8, 6-((1H-tetrazol-5-yl)methoxy)-N-(4-((2-chloro-4-fluorobenzyl)oxy)phenyl)benzofuran-3-carboxamide], above 1000 nM.
To `O=C(Nc1ccc(N2CC3C(C2)C3(F)F)c(F)c1)c1coc2cc(-c3nnn[nH]3)c(F)cc12` (stereo not shown) [Compound 1-42, N-(4-(6,6-difluoro-3-azabicyclo[3.1.0]hexan-3-yl)-3-fluorophenyl)-5-fluoro-6-(1H-tetrazol-5-yl)benzofuran-3-carboxamide] belongs 100 to 1000 nM; to `O=C(Nc1ccc(OC2CCCC2)c(F)c1)c1coc2c(-c3nnn[nH]3)cccc12` [Compound 1-7, N-(4-(cyclopentyloxy)-3-fluorophenyl)-7-(1H-tetrazol-5-yl)benzofuran-3-carboxamide], above 1000 nM; to `O=C(Nc1ccc(O[C@H]2CCOC2)c(F)c1)c1coc2cc(-c3nnn[nH]3)c(F)cc12` [Compound 1-21, (S)-5-fluoro-N-(3-fluoro-4-((tetrahydrofuran-3-yl)oxy)phenyl)-6-(1H-tetrazol-5-yl)benzofuran-3-carboxamide], 100 to 1000 nM.
Take `O=C(Nc1ccc(OCc2ccc(F)c(Cl)c2)cc1)c1coc2cc(-c3nnn[nH]3)c(F)cc12` [Compound 1-43, N-(4-((3-chloro-4-fluorobenzyl)oxy)phenyl)-5-fluoro-6-(1H-tetrazol-5-yl)benzofuran-3-carboxamide]: the IC50 is at most 100 nM.
The compound `O=C(Nc1ccc(OCc2ccc(F)cc2Cl)c(F)c1)c1coc2c(-c3nnn[nH]3)cccc12` [Compound 1-11, N-(4-((2-chloro-4-fluorobenzyl)oxy)-3-fluorophenyl)-7-(1H-tetrazol-5-yl)benzofuran-3-carboxamide] came in with an IC50 above 1000 nM.
To `O=C(Nc1ccc(O[C@H]2CCC(F)(F)C2)c(F)c1)c1coc2cc(-c3nnn[nH]3)c(F)cc12` (single isomer, unassigned) [Compound 1-36] belongs at most 100 nM; to `O=C(Nc1ccc(C2CCCC2)c(F)c1)c1coc2cc(-c3nnn[nH]3)c(F)cc12` [Compound 1-17, N-(4-cyclopentyl-3-fluorophenyl)-5-fluoro-6-(1H-tetrazol-5-yl)benzofuran-3-carboxamide], at most 100 nM; to `O=C(Nc1ccc(OC2CCCC2)c(F)c1F)c1coc2cc(-c3nnn[nH]3)ccc12` [Compound 1-9, N-(4-(cyclopentyloxy)-2,3-difluorophenyl)-6-(1H-tetrazol-5-yl)benzofuran-3-carboxamide], above 1000 nM.
Take `O=C(Nc1ccc(OCc2cc(F)cc(Cl)c2)cc1)c1coc2cc(-c3nnn[nH]3)c(F)cc12` [Compound 1-45, N-(4-((3-chloro-5-fluorobenzyl)oxy)phenyl)-5-fluoro-6-(1H-tetrazol-5-yl)benzofuran-3-carboxamide]: the IC50 is 100 to 1000 nM.
`O=C(Nc1ccc(F)c(F)c1OC1CCCC1)c1coc2cc(-c3nnn[nH]3)ccc12` [Compound 1-12, N-(2-(cyclopentyloxy)-3,4-difluorophenyl)-6-(1H-tetrazol-5-yl)benzofuran-3-carboxamide]: the IC50 was above 1000 nM.
To `O=C(Nc1ccc(OCc2ccc(Cl)cn2)cc1)c1coc2cc(-c3nnn[nH]3)c(F)cc12` [Compound 1-51, N-(4-((5-chloropyridin-2-yl)methoxy)phenyl)-5-fluoro-6-(1H-tetrazol-5-yl)benzofuran-3-carboxamide] belongs at most 100 nM; to `O=C(Nc1ccc(OC2CCCC2)c(F)c1)c1coc2cc(-c3nnn[nH]3)ccc12` [Compound 1-1, N-(4-(cyclopentyloxy)-3-fluorophenyl)-6-(1H-tetrazol-5-yl)benzofuran-3-carboxamide], at most 100 nM.
To `N#Cc1cc(F)ccc1COc1ccc(NC(=O)c2coc3cc(-c4nnn[nH]4)c(F)cc23)cc1` [Compound 1-48, N-(4-((2-cyano-4-fluorobenzyl)oxy)phenyl)-5-fluoro-6-(1H-tetrazol-5-yl)benzofuran-3-carboxamide] belongs 100 to 1000 nM; to `O=C(Nc1ccc(OCc2ccc(F)cc2Cl)c(F)c1)c1coc2cc(-c3nnn[nH]3)ccc12` [Compound 1-6, N-(4-((2-chloro-4-fluorobenzyl)oxy)-3-fluorophenyl)-6-(1H-tetrazol-5-yl)benzofuran-3-carboxamide], 100 to 1000 nM; to `C[C@@H](Oc1ccc(NC(=O)c2coc3cc(-c4nnn[nH]4)c(F)cc23)cc1F)C(F)(F)F` (single isomer, unassigned) [Compound 1-31], 100 to 1000 nM.
With `C[C@H](Oc1ccc(NC(=O)c2coc3cc(-c4nnn[nH]4)c(F)cc23)cc1)c1ccc(F)cc1Cl` (single isomer, unassigned) [Compound 1-25] the figure was above 1000 nM; with `O=C(Nc1ccc(C2CCCC2)c(F)c1)c1coc2cc(-c3nnn[nH]3)ccc12` [Compound 1-14, N-(4-cyclopentyl-3-fluorophenyl)-6-(1H-tetrazol-5-yl)benzofuran-3-carboxamide], at most 100 nM; with `O=C(Nc1ccc(OCc2cccc(F)c2Cl)cc1)c1coc2cc(-c3nnn[nH]3)c(F)cc12` [Compound 1-44, N-(4-((2-chloro-3-fluorobenzyl)oxy)phenyl)-5-fluoro-6-(1H-tetrazol-5-yl)benzofuran-3-carboxamide], 100 to 1000 nM.
Regarding `O=C(Nc1ccc(OCc2ccc(F)cc2Cl)cc1)c1coc2cc(Oc3nnn[nH]3)ccc12` [Compound 1-29, 6-((1H-tetrazol-5-yl)oxy)-N-(4-((2-chloro-4-fluorobenzyl)oxy)phenyl)benzofuran-3-carboxamide], the IC50 was above 1000 nM.
In the case of `O=C(Nc1ccc(O[C@@H]2CCC(F)(F)C2)c(F)c1)c1coc2cc(-c3nnn[nH]3)c(F)cc12` (single isomer, unassigned) [Compound 1-37], the IC50 was at most 100 nM.
With `O=C(Nc1ccc(OCc2c(F)cc(Cl)cc2F)cc1)c1coc2cc(-c3nnn[nH]3)c(F)cc12` [Compound 1-54, N-(4-((4-chloro-2,6-difluorobenzyl)oxy)phenyl)-5-fluoro-6-(1H-tetrazol-5-yl)benzofuran-3-carboxamide] the figure was 100 to 1000 nM.

These data come from patent US20250214976A1, “GPR35 MODULATORS AND USES THEREOF” (Crossignal Therapeutics, Inc., priority 2022, published 2025).
